Assay results taken from US20070032417A1, “Peptides and therapeutic uses thereof” (priority 2002, published 2007).
Like-named read-outs stand apart in the source and are kept apart here. *1 amine or outer side, *2 acyl side, *3 side chain or, on linkers, in order; H or OH if unused. Where a SMILES comes first, the peptide text is derived from it. Bridges are numbered along the chain shown (N, C = ends). [ ]: non-standard residue; d: D form. Hexamethylenediamine = C(CCCN[*:2])CCN[*:1]; NH(CH2)5NH = C(CCN[*:1])CCN[*:2]; Cit = NC(=O)NCCC[C@H](N)C(=O)O; X1 = O=C(CN[*:1])NCCN[*:2]

How the values were obtained:
[1] = target: Bcl-2 ΔC22 (Homo sapiens, UniProt P10415); assay: Competition assay using biotinylated Bim-BH3 peptide, Bcl-2 ΔC22; format: binding; settings: for IC50: competition with biotinylated Bim-BH3 peptide; for affinity for Bcl-2 and Bcl-xL over the unconstrained 12-mer, in words: compared to the unconstrained 12-mer
Excerpt: The results are shown below:

[2] = target: T1, 6-His tagged Bcl w delta C10 protein (Homo sapiens, UniProt Q92843); assay: Alphascreen competition with Bim26mer, Hexa-His detection system; format: binding; settings: competition with biotinylated Bim-BH3 peptide; read-out: IC50 (nM) Bcl-w ΔC10
T1 sequence (Q92843 1-183 limits assumed): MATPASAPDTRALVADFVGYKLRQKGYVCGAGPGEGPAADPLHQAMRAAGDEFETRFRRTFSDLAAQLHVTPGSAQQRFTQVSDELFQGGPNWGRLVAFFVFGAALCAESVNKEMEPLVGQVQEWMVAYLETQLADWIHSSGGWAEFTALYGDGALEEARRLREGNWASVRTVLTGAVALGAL
Excerpt: Alphascreen (Amplified Luminsecent Proximity Homogenous Assay) is a bead based technology which measures a biological interaction between molecules. The assay consists of two hydrogel coated beads which, when bought into close proximity by a binding interaction, allow a transfer of singlet oxygen from a donor bead to an acceptor bead.
Upon binding a photosensitiser in the donor bead converts ambient oxygen to a more excited singlet state. This singlet oxygen then diffuses across to react with a chemiluminescer in the acceptor bead. Fluorophores within the same bead are activated, resulting in the emission of light.
Screening of the conformationally constrained peptides was performed using the Hexa-His detection system. Non biotinylated peptides dissolved in DMSO were titrated into the assay which consisted of 6-His tagged Bcl w delta C10 protein (24 nM Final concentration) and Biotinylated Bim BH3-26 peptide, Biotin-[…] [SEQ ID NO: 40] (1.5 nM Final concentration). To this reaction mix 6His tagged (Nickel Chelate) acceptor beads and Streptavidin coated donor beads, both at 10 ug/ml Final concentration, were added.
Assay buffer contained 50 mM Hepes pH 7.4, 10 mM DTT, 100 mM NaCl, 0.05% Tween and 1 mg/ml BSA. Bead dilution buffer contained 50 mM Tris, pH 7.5, 0.01% Tween and 1 mg/ml BSA. The final DMSO concentration in the assay was 1%. Assays were performed in 384 well white Optiplates and analysed on the Perkin Elmer Fusion plate reader (Ex680, Em520-620 […]).

[3] = Circular dichroism, alpha-helical content of peptides; format: physicochemical; settings: 30% aqueous trifluoroethanol
Protocol: Circular dichroism spectra were obtained using a Jasco Model J-710 spetropolarimeter at 20° C. using the following parameters: path length, 2 mm; step resolution, 0.1 nm; speed, 20 nm/min; accumulation, 4; response, 1 second; bandwidth, 1.0 nm. The peptides were analysed at a concentration of 0.5 mg/mL in 30% aqueous TFE. The alpha-helical content of the peptides were determined by methods described in Yang et al (1986), involving comparisons of spectra with model helical peptides.

[4] = target: T2, GST tagged Bcl w delta C29 protein (Homo sapiens, UniProt Q92843); assay: Alphascreen competition with Bim26mer, GST detection system; format: binding; settings: for change in binding affinity, in words / decrease in binding affinity: Bcl-w ΔC29, compared to the linear 16-mer
T2 sequence (Q92843 1-164 limits assumed): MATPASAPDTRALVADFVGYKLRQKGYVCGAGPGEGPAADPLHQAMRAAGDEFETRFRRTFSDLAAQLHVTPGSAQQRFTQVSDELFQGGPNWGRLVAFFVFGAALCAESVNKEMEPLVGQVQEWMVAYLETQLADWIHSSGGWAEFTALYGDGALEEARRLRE

[5] = target: GST tagged Bcl w delta C29 protein (UniProt Q92843); assay: AlphaScreen competition with biotinylated Bim BH3-26 peptide
[6] = competition with biotinylated Bim-BH3 peptide, 12-mers, Example 7, read-out: IC50 (nM) Bcl-w ΔC29
[7] = substituted 16-mers, Example 9, read-out: IC50 nM Bcl-w ΔC29
[8] = Puma and Bmf peptides, Example 10, read-out: IC50 nM Bcl-w ΔC29

Molecule: CC[C@H](C)[C@H](NC(=O)[C@@H]1CCC(=O)NCCCCCNC(=O)CC[C@H](NC(C)=O)C(=O)N[C@@H]([C@@H](C)CC)C(=O)N[C@@H](C)C(=O)N[C@@H](CCC(N)=O)C(=O)N[C@@H](CCC(=O)O)C(=O)N[C@@H](CC(C)C)C(=O)N[C@@H](CCCNC(=N)N)C(=O)N1)C(=O)NCC(=O)N[C@@H](CC(=O)O)C(=O)N[C@@H](CCC(=O)O)C(=O)N[C@@H](Cc1ccccc1)C(N)=O [A, Ac-E-IAQELR-E-IGDEF-NH2] (Ac-EIAQELREIGDEF-NH2; linker 1-8 via NH(CH2)5NH)
- IC50 [1]: 26000 nM
- IC50 [2]: 2600 nM
- % Helicity [3]: 33%
- IC50 [4, 6]: 1800 nM

Molecule: CC[C@H](C)[C@H](NC(C)=O)C(=O)N[C@@H](C)C(=O)N[C@@H](CCC(N)=O)C(=O)N[C@H]1CCC(=O)NCCCCCCNC(=O)CC[C@@H](C(=O)N[C@@H](Cc2ccccc2)C(N)=O)NC(=O)[C@H](CC(=O)O)NC(=O)CNC(=O)[C@H]([C@@H](C)CC)NC(=O)[C@H](CCCNC(=N)N)NC(=O)[C@H](CCCNC(=N)N)NC(=O)[C@H](CC(C)C)NC1=O [C, Ac-IAQ-E-LRRIGD-E-F-NH2] (Ac-IAQELRRIGDEF-NH2; linker 4-11 via Hexamethylenediamine)
- affinity for Bcl-2 and Bcl-xL over the unconstrained 12-mer, in words [1]: outstanding increases in affinity
- IC50 [1]: 2600 nM
- IC50 [2]: 230 nM
- % Helicity [3]: 39%
- IC50 [4, 6]: 120 nM

Molecule: CC[C@H](C)[C@H](NC(C)=O)C(=O)N[C@@H](C)C(=O)N[C@@H](CCC(N)=O)C(=O)N[C@H]1CCC(=O)NCC(=O)NCCNC(=O)CC[C@@H](C(=O)N[C@@H](Cc2ccccc2)C(N)=O)NC(=O)[C@H](CC(=O)O)NC(=O)CNC(=O)[C@H]([C@@H](C)CC)NC(=O)[C@H](CCCNC(=N)N)NC(=O)[C@H](CCCNC(=N)N)NC(=O)[C@H](CC(C)C)NC1=O [D] (Ac-IAQELRRIGDEF-NH2; linker 4-11 via X1)
- IC50 [1]: 6900 nM
- IC50 [2]: 40 nM
- % Helicity [3]: 16%
- IC50 [4, 6]: 160 nM

Molecule: CC[C@H](C)[C@H](NC(C)=O)C(=O)N[C@@H](Cc1c[nH]c2ccccc12)C(=O)N[C@H](C(=O)N[C@@H](C)C(=O)N[C@@H](CCC(N)=O)C(=O)N[C@H]1CCC(=O)NCCCCCNC(=O)CC[C@@H](C(=O)N[C@@H](Cc2ccccc2)C(=O)N[C@@H](CC(N)=O)C(=O)N[C@@H](C)C(N)=O)NC(=O)[C@H](CC(=O)O)NC(=O)CNC(=O)[C@H]([C@@H](C)CC)NC(=O)[C@H](CCCNC(=N)N)NC(=O)[C@H](CCCNC(=N)N)NC(=O)[C@H](CC(C)C)NC1=O)[C@@H](C)CC [E] (Ac-IWIAQELRRIGDEFNA-NH2; linker 6-13 via NH(CH2)5NH)
- IC50 ([4]; values repeated in text, read-out: binding of the constrained peptide to Bcl-w): 0.5 nM

Molecule: CC[C@H](C)[C@H](NC(C)=O)C(=O)N[C@@H](C)C(=O)N[C@@H](CCC(N)=O)C(=O)N[C@H]1CCC(=O)NCCCCCNC(=O)CC[C@@H](C(=O)N[C@@H](Cc2ccccc2)C(N)=O)NC(=O)[C@H](CC(=O)O)NC(=O)CNC(=O)[C@H]([C@@H](C)CC)NC(=O)[C@H](CCCNC(=N)N)NC(=O)[C@H](CCCNC(=N)N)NC(=O)[C@H](CC(C)C)NC1=O [Peptide B, Acetyl-IAQ(E1)LRRIGD(E2)F-amide] (Ac-IAQELRRIGDEF-NH2; linker 4-11 via NH(CH2)5NH)
- affinity for Bcl-2 and Bcl-xL over the unconstrained 12-mer, in words [1]: outstanding increases in affinity
- IC50 [1]: 290 nM
- IC50 [2]: 65 nM
- % Helicity [3]: 28%
- IC50 [4, 6]: 150 nM

Molecule: CC[C@H](C)[C@H](NC(=O)[C@H](C)NC(=O)[C@H](CCC(N)=O)NC(C)=O)C(=O)N[C@@H](C)C(=O)N[C@@H](CCC(N)=O)C(=O)N[C@H]1CCC(=O)NCCCCCNC(=O)CC[C@@H](C(=O)N[C@@H](Cc2ccccc2)C(=O)N[C@@H](CC(N)=O)C(=O)N[C@@H](C)C(N)=O)NC(=O)[C@H](CC(=O)O)NC(=O)CNC(=O)[C@H]([C@@H](C)CC)NC(=O)[C@H](CCCNC(=N)N)NC(=O)[C@H](CCCNC(=N)N)NC(=O)[C@H](CC(C)C)NC1=O [Peptide G, Ac-QAIAQZLRRIGDZFNA-NH2] (Ac-QAIAQELRRIGDEFNA-NH2; linker 6-13 via NH(CH2)5NH)
- IC50 [4]: 2.4 nM

Molecule: CC[C@H](C)[C@H](NC(C)=O)C(=O)N[C@@H](Cc1c[nH]c2ccccc12)C(=O)N[C@H](C(=O)N[C@@H](C)C(=O)N[C@@H](CCC(N)=O)C(=O)N[C@@H](CCC(=O)O)C(=O)N[C@@H](CC(C)C)C(=O)N[C@@H](CCCNC(N)=O)C(=O)N[C@@H](CCCNC(N)=O)C(=O)N[C@H](C(=O)NCC(=O)N[C@@H](CC(=O)O)C(=O)N[C@@H](CCC(=O)O)C(=O)N[C@@H](Cc1ccccc1)C(=O)N[C@@H](CC(N)=O)C(=O)N[C@@H](C)C(N)=O)[C@@H](C)CC)[C@@H](C)CC [Peptide T] (Ac-IWIAQEL[Cit][Cit]IGDEFNA-NH2)
- IC50 [4, 7]: 20 nM

Molecule: Ac-AWIAQELRRIGDEFNA-NH2 [O]
- change in binding affinity, in words [4]: drop in binding
- IC50 [4, 7]: 22 nM

Molecule: Ac-IAIAQELRRIGDEFNA-NH2 [P]
- change in binding affinity, in words [4]: drop in binding
- IC50 [4, 7]: 42 nM

Molecule: Ac-IAQELRRIGDEF-NH2 [Linear 12mer, reference compound]
- IC50 [1]: 240000 nM
- IC50 [2]: 870 nM
- % Helicity [3]: 9%
- IC50 [4, 6]: 4700 nM

Molecule: Ac-IFIAQELRRIGDEFNA-NH2 [N]
- change in binding affinity, in words [4]: drop in binding
- IC50 [4, 7]: 11 nM

Molecule: Ac-IRIAQELRRIGDEFNA-NH2 [Q]
- change in binding affinity, in words [4]: drop in binding
- IC50 [4, 7]: 17 nM

Molecule: Ac-IWAAQEARRAGDEANA-NH2 [M]
- IC50 [4, 7]: 64000 nM

Molecule: Ac-IWAAQELRRIGDEFNA-NH2 [Peptide I]
- change in binding affinity, in words [4]: slight decrease in binding affinity
- decrease in binding affinity [4]: 100 fold
- IC50 [4, 7]: 360 nM

Molecule: Ac-IWIAQEARRIGDEFNA-NH2 [Peptide J]
- decrease in binding affinity [4]: about 1000 fold
- IC50 [4, 7]: 3700 nM

Molecule: Ac-IWIAQELRRAGDEFNA-NH2 [Peptide K]
- decrease in binding affinity [4]: 3 fold
- IC50 [4, 7]: 7.3 nM

Molecule: Ac-IWIAQELRRIGDEANA-NH2 [Peptide L]
- decrease in binding affinity [4]: 1,000 fold
- IC50 [4, 7]: 3500 nM

Molecule: Ac-IWIAQELRRIGDEFAA-NH2 [Peptide S]
- change in binding affinity, in words [4]: only slight, if any, loss of binding affinity
- IC50 [4, 7]: 3.3 nM

Molecule: Ac-IWIAQELRRIGDEFAN-NH2 [Peptide R]
- IC50 [4, 7]: 12 nM

Molecule: Ac-IWIAQELRRIGDEFNA-NH2 [linear 16-mer, reference compound]
- IC50 ([4]; competition with biotinylated BIM-BH3 peptide, 16-mers, Example 8, read-out: IC50 (nM) Bcl-w ΔC29): 2.5 nM

Molecule: Ac-IWIAQELRRIGDEFNN-NH2 [Peptide U]
- decrease in binding affinity [4]: two
- IC50 [4, 7]: 5.8 nM

Molecule: Ac-IWIAQQLRRIGDQFNA-NH2 [H]
- IC50 [4, 7]: 3.3 nM

Molecule: Ac-REIGAQLRRMADDLNA-NH2 [Puma]
- IC50 [4, 8]: 52 nM

Molecule: Ac-VQIARKLQAIADQFHR-NH2 [Bmf]
- IC50 [4, 8]: 0.25 nM

Molecule: Ac-IWIAQELRRIGDEFNN-NH2 [Peptide U (linear), Ac-…-NH2]
- fold loss of binding affinity (against the linear 16-mer) [5]: 2 fold

Molecule: Ac-IWAAQELRRIGDEFNA-NH2 [Peptide I (linear), Ac-…-NH2]
- fold decrease in binding affinity (against the linear 16-mer) [5]: 100 fold

Molecule: Ac-IWIAQELRRAGDEFNA-NH2 [Peptide K (linear), Ac-…-NH2]
- fold decrease in affinity (against the linear 16-mer) [5]: 3 fold

Molecule: Ac-IWIAQELRRIGDEANA-NH2 [Peptide L (linear), Ac-…-NH2]
- fold decrease in affinity (against the linear 16-mer) [5]: 1000 fold

Molecule: Ac-IWAAQEARRAGDEANA-NH2 [Peptide M (linear), Ac-…-NH2]
- fold decrease in binding affinity (against the linear 16-mer) [5]: 25000 fold

Molecule: Ac-IWIAQEARRIGDEFNA-NH2 [Peptide J (linear), Ac-…-NH2]
- fold decrease in affinity (against the linear 16-mer) [5]: 1000 fold
